This note sets out measurements from US20100305120A1, “COMPOUNDS FOR TREATING MUSCULAR DYSTROPHY” (BIOMARIN IGA LIMITED, priority 2008, published 2010).

The test system of the experiment is Utrophin A promoter linked to a luciferase reporter gene. Briefly: Luciferase reporter assay (murine H2K cells), H2K/mdx/Utro A reporter cell line. It counts as cell-based. The following applies: 48 h; test compound concentration 10 μM; mdx mouse H2K Utrophin A reporter cells; read-out: Activity (luciferase level relative to control). The method in brief: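 Immortalized mdx mouse H2K myoblasts stably carrying ~5 kb utrophin A promoter–luciferase construct, kept at 33 °C, 10% CO2. Compound added 24 h after plating, typically at 10 μM final, for 48 h; luciferase measured by cell lysis and luminescence.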
A general note: In a reporter assay the amount or activity of a reporter protein is the signal.
For `CCc1nnc(Cn2nc(C(=O)Nc3ccc4c(c3)OCO4)c3ccccc32)o1` [Compound 155], the activity at 10 µM is less than 200%.
In the case of `CCS(=O)(=O)c1ccc(Cn2nc(C(=O)Nc3ccc4c(c3)OCO4)c3ccccc32)cc1` [Compound 156, N-(benzo[d][1,3]dioxol-5-yl)-1-(4-(ethylsulphonyl)benzyl)-1H-indazole-3-carboxamide] it was 201 to 300%.
The value for `CS(=O)(=O)c1ccc(Cn2nc(C(=O)O)c3ccccc32)cc1` [Compound 157, 1-(4-(methylsulphonyl)benzyl)-1H-indazole-3-carboxylic acid] was less than 200%; that for `CCc1ccc(Cn2nc(C(=O)Nc3ccc4c(c3)OCCO4)c3ccccc32)cc1` [Compound 158, N-(2,3-dihydrobenzo[b][1,4]dioxin-6-yl)-1-(4-ethylbenzyl)-1H-indazole-3-carboxamide] was 201 to 300%.
The value for `CCc1ccc(Cn2nc(C(=O)Nc3ccc4c(c3)OC(F)(F)C(F)(F)O4)c3ccccc32)cc1` [Compound 159, 1-(4-ethylbenzyl)-N-(2,2,3,3-tetrafluoro-2,3-dihydrobenzo[b][1,4]dioxin-6-yl)-1H-indazole-3-carboxamide] was less than 200%; that for `O=C(Nc1ccc2c(c1)OCCO2)c1nn(Cc2ccc(C(=O)N3CCOCC3)cc2)c2ccc(F)cc12` [Compound 160, N-(2,3-dihydrobenzo[b][1,4]dioxin-6-yl)-5-fluoro-1-(4-(morpholine-4-carbonyl)benzyl)-1H-indazole-3-carboxamide] was less than 200%; that for `O=C(Nc1ccc2c(c1)OC(F)(F)C(F)(F)O2)c1nn(Cc2ccc(C(=O)N3CCOCC3)cc2)c2ccccc12` [Compound 161, 1-(4-(morpholine-4-carbonyl)benzyl)-N-(2,2,3,3-tetrafluoro-2,3-dihydrobenzo[b][1,4]dioxin-6-yl)-1H-indazole-3-carboxamide] was 201 to 300%.
As for `O=C(Nc1ccc2c(c1)OCCO2)c1nn(Cc2ccc(C(=O)N3CCOCC3)cc2)c2cc(F)ccc12` [Compound 162, N-(2,3-dihydrobenzo[b][1,4]dioxin-6-yl)-6-fluoro-1-(4-(morpholine-4-carbonyl)benzyl)-1H-indazole-3-carboxamide], the activity at 10 µM lay within 201 to 300%.
As to `O=C(Nc1ccc2c(c1)OCCO2)c1nn(Cc2ccc(C(=O)N3CCOCC3)cc2)c2cc(C(F)(F)F)ccc12` [Compound 163, N-(2,3-dihydrobenzo[b][1,4]dioxin-6-yl)-1-(4-(morpholine-4-carbonyl)benzyl)-6-(trifluoromethyl)-1H-indazole-3-carboxamide], the activity at 10 µM is less than 200%.
